From article PMC9965125, “New NSAID Conjugates as Potent and Selective COX-2 Inhibitors: Synthesis, Molecular Modeling and Biological Investigation” (Molecules, 2023)
Several values for one entry are separate records, joined by “and”; a condition that tells them apart may be missing. Identical values can stand only once.

Columns and labels:
[1] = system: acetic acid-induced abdominal writhing; assay: acetic acid-induced abdominal writhing assay (peripheral analgesic); format: in vivo, mice; conditions: for % Inhibition/Protection / Writing Reflex ± SE: 10 mg/kg indomethacin mol equivalent i.p.; for Potency: % inhibition/protection compared to indomethacin; for Writing Reflex ± SE: number of writhing counted for 30 min
Method: Peripheral analgesic testing
Peripheral analgesic activity was measured by the standard acetic acid-induced writhing […]
One hour after intraperitoneally (i,p.) administration of 10 mg kg−1 (mice body weight) […]
distilled/sterile water by the aid of two drops of Tween 80, each mouse was injected with 0.1 ml of 1% acetic acid solution i.p. The control group animals were given sterile/distilled water only with few drops of Tween 80. Starting 5 min after the acetic acid injection, the number of muscular contractions in each mouse was counted for 30 min. A significant reduction in the number of writhing by any test compound as compared to control animals was considered as a positive analgesic response. Percentage protection was calculated according to equ. (3), where n stands for the average number of writhing in the control group and n' is the average number of writhing in the treated group. The % potency was calculated by equ. (4) (Table 2).
% Inhibition/protection = n−n′ x100 … . (3)

[2] = system: carrageenan induced paw edema; assay: carrageenan-induced rat paw edema; format: in vivo; conditions: for % Inhibition of Edema ± Standard Error / Mean Edema Thickness: 10 mg/kg indomethacin mol equivalent i.p.; for Mean Edema Thickness: ± standard error
Method: Anti-inflammatory activity screening
The anti-inflammatory activity of the tested compounds was determined in-vivo by the acute carrageenan induced paw edema standard method in rats. Adult Wister rats of either sex (pregnant female animals were excluded) weighing 120–150 g were divided into 19 groups of 6 animals each. The tested compounds dissolved in DMSO, at a dose of 10 mg kg-1 (rat body […]
inflammation. The control group was given DMSO only. Paw edema was induced by subcutaneous injection of freshly prepared 1% solution of carrageenan in saline (0.9%, 0.1 ml per rat) into subplantar tissue of the right hind paw of rats. The thickness of the paw was measured (in mm) after successive time intervals (1, 2, 3, 4 and 24 h) and compared with the initial hind paw thickness of each rat for determining the edema thickness. Data were collected, checked, revised and analyzed (SPSS 16). Quantitative variables from normal distribution were expressed as means ± SE “standard error”. The anti-inflammatory activity was expressed as percentage inhibition of edema thickness in treated animals in comparison with the control group according to eqn. (1) […]
% Inhibition of edema= Vc-Vt x 100 … .. (1)
Where, Vc and Vt are the means of edema paw thickness for the control and tested compound treated animal groups, respectively.
The potency of the tested compounds was expressed as % inhibition of edema thickness […]
% Potency = % inhibition of edema for the tested compound treated group x 100 … . (2)

hot plate latency = assay: hot plate assay (central analgesic); format: in vivo, mice; conditions: for % Protection / Latency Period ± SE: 10 mg/kg indomethacin mol equivalent i.p.; for Latency Period ± SE: cutoff 15 sec; for Potency: at 120 min compared to indomethacin
Method: The % potency was calculated by equ. (4) (Table 2). […]
% Potency = % protection of the tested compound x 100 ……. (4) […]
Central analgesic (hot plate) testing
The standard hot plate technique was undertaken by in vivo standard hot plate test [ 1,2]. […]
by placing them on a hot plate maintained at 55 ± 1 °C, 30 min. […]
suspended in sterile/distilled water by the ai d of two drops of Tween 80, and recording the reaction time in seconds for forepaw licking or jumping. The control group animals were given sterile/distilled water only with few drops of Tween 80. The maximum cutoff time was chosen as 15 sec. to prevent tissue damage. Response latencies were measured 30, 60, 90 and 120 min. after the application. The % protection was calculated by equ. ( 5) where, T1, T0 are the latency time mean of the tested compound and control group, respectively (Table 3).

| SMILES | % Inhibition/Protection [1] | Potency [1] | Writing Reflex ± SE [1] | % Inhibition of Edema ± Standard Error ([2]; 1 h) | % Inhibition of Edema ± Standard Error ([2]; 24 h) | % Protection (hot plate latency; after 30 min) | Latency Period ± SE (hot plate latency; after 30 min) | % Protection (hot plate latency; after 60 min) | Latency Period ± SE (hot plate latency; after 60 min) | % Protection (hot plate latency; after 90 min) | Latency Period ± SE (hot plate latency; after 90 min) | Latency Period ± SE (hot plate latency; after 120 min) | Potency (hot plate latency) | % Inhibition of Edema ± Standard Error ([2]; 4 h) | % Protection (hot plate latency; after 120 min) | further results |
| --- | --- | --- | --- | --- | --- | --- | --- | --- | --- | --- | --- | --- | --- | --- | --- | --- |
| CC(C)Cc1ccc(C(C)C(=O)OCc2cn(-c3ccc(F)cc3)nn2)cc1 (centres unmarked) [Compound 5c, (1-(4-Fluorophenyl)-1H-1,2,3-triazol-4-yl)methyl 2-(4-isobutylphenyl)propanoate] | 83.3% | 116.0% | 6.7 ± 0.5 | 0.00 ± 1.0% | 0.00 ± 0.2% | 112.1% | 14.17 ± 2.6 s | 106.3% | 15.0 ± 2.3 s | 67.3% | 14.91 ± 2.5 s | 10.63 ± 1.8 s | 31.9 |  |  | % Protection (hot plate latency; after 120 min, 10 mg/kg): 18%; % protection relative to its parent drug ibuprofen (hot plate latency; at 30 min): 1.8 folds |
| COc1ccc(-n2cc(COC(=O)C(C)c3ccc(CC(C)C)cc3)nn2)cc1 (centres unmarked) [Compound 5f, (1-(4-Methoxyphenyl)-1H-1,2,3-triazol-4-yl)methyl 2-(4-isobutylphenyl)propanoate] | 80.0% | 111.4% | 8.0 ± 1.4 |  | 2.5 ± 0.9% | 90.1% | 12.7 ± 0.9 s | 56.8% | 11.40 ± 1.5 s | 19.0% | 10.60 ± 1.9 s | 9.03 ± 1.6 s | 0.4 | 1.8 ± 0.7% | 0.2% |  |
| CC(C)Cc1ccc(C(C)C(=O)OCc2cn(-c3ccc([N+](=O)[O-])cc3)nn2)cc1 (centres unmarked) [Compound 5g, (1-(4-Nitrophenyl)-1H-1,2,3-triazol-4-yl)methyl 2-(4-isobutylphenyl)propanoate] | 65.0% | 90.5% | 14.0 ± 1.9 | 34.0 ± 1.8% | 0.00 ± 0.5% | 87.1% | 12.5 ± 2.1 s | 73.2% | 12.59 ± 1.5 s | 19.0% | 10.60 ± 2.6 s | 11.54 ± 2.2 s | 49.7 |  | 28.1% |  |
| COc1ccc2c(c1)c(CC(=O)OCc1cn(-c3ccccc3Cl)nn1)c(C)n2C(=O)c1ccc(Cl)cc1 [Compound 8a, (1-(2-Chlorophenyl)-1H-1,2,3-triazol-4-yl)methyl 2-(1-(4-chlorobenzoyl)-5-methoxy-2-methyl-1H-indol-3-yl)acetate] | 49.3% | 68.7% | 20.3 ± 1.8 | 0.00 ± 1.5% |  | 82.5% | 12.19 ± 1.9 s | 85.8% | 13.51 ± 1.7 s | 55.4% | 13.85 ± 1.4 s | 13.63 ± 1.3 s | 90.8 | 26.9 ± 1.1% | 51.3% | Mean Edema Thickness ([2]; 1 h): 0.863 ± 0.07 mm; % Inhibition of Edema ± Standard Error ([2]; 2 h): 44.9 ± 1.7%; Mean Edema Thickness ([2]; 2 h): 0.393 ± 0.08 mm; % Inhibition of Edema ± Standard Error ([2]; 3 h, 10 mg/kg): 32.5% and 32.5 ± 1.5%; Mean Edema Thickness ([2]; 3 h): 0.488 ± 0.07 mm; Mean Edema Thickness ([2]; 4 h): 0.521 ± 0.03 mm; % Inhibition of Edema ± Standard Error ([2]; 24 h, 10 mg/kg): 33.3% and 33.3 ± 2.4%; Mean Edema Thickness ([2]; 24 h): 0.614 ± 0.09 mm; % Potency ([2]; % inhibition of edema thickness relative to indomethacin at 3 h): 40.1% |
| COc1ccc2c(c1)c(CC(=O)OCc1cn(-c3ccc(Cl)cc3)nn1)c(C)n2C(=O)c1ccc(Cl)cc1 [Compound 8b, (1-(4-Chlorophenyl)-1H-1,2,3-triazol-4-yl)methyl 2-(1-(4-chlorobenzoyl)-5-methoxy-2-methyl-1H-indol-3-yl)acetate] | 46.3% | 64.5% | 21.5 ± 1.5 |  |  | 2.4% | 6.84 ± 1.4 s | 14.3% | 8.31 ± 1.9 s | 11.2% | 9.91 ± 1.7 s | 9.88 ± 2.0 s | 17.2 |  | 9.7% | anti-inflammatory efficacy (in words) ([2]; carrageenan-induced rat paw edema): no anti-inflammatory efficacy |
| COc1ccc2c(c1)c(CC(=O)OCc1cn(-c3ccc(F)cc3)nn1)c(C)n2C(=O)c1ccc(Cl)cc1 [Compound 8c, (1-(4-Fluorophenyl)-1H-1,2,3-triazol-4-yl)methyl 2-(1-(4-chlorobenzoyl)-5-methoxy-2-methyl-1H-indol-3-yl)acetate] | 41.3% | 57.5% | 23.5 ± 1.4 |  | 0.00 ± 1.0% | 69.5% | 11.32 ± 0.8 s | 29.2% | 9.39 ± 1.1 s | 27.9% | 11.40 ± 1.6 s | 13.34 ± 1.8 s | 85.1 |  | 48.1% |  |
